From PubChem BioAssay (NCI)
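Growth conditions: 96-well plates. Treatment: test compound, 48 hours, 5 concentrations. Analysis: linear interpolation between bracketing concentrations; unreached endpoints set to highest concentration. The concentration for 50% growth inhibition is given as GI50. TGI marks complete inhibition of growth.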

Experiments:
Experiment in all cases: inhibition of tumour cell growth, NCI panel, 48 h
786-0 renal = test system: 786-0 renal
A498 renal = test system: A498 renal
A549 NSCLC = test system: A549 NSCLC
ACHN renal = test system: ACHN renal
BT-549 breast = test system: BT-549 breast
CAKI-1 renal = test system: CAKI-1 renal
CCRF-CEM leukemia = test system: CCRF-CEM leukemia
COLO 205 colon = test system: COLO 205 colon
DU-145 prostate = test system: DU-145 prostate
EKVX NSCLC = test system: EKVX NSCLC
HCC-2998 colon = test system: HCC-2998 colon
HCT-116 colon = test system: HCT-116 colon
HCT-15 colon = test system: HCT-15 colon
HL-60(TB) leukemia = test system: HL-60(TB) leukemia
HOP-62 NSCLC = test system: HOP-62 NSCLC
HOP-92 NSCLC = test system: HOP-92 NSCLC
HS 578T breast = test system: HS 578T breast
HT29 colon = test system: HT29 colon
IGROV1 ovarian = test system: IGROV1 ovarian
K-562 leukemia = test system: K-562 leukemia
KM12 colon = test system: KM12 colon
LOX IMVI melanoma = test system: LOX IMVI melanoma
M14 melanoma = test system: M14 melanoma
MALME-3M melanoma = test system: MALME-3M melanoma
MCF7 breast = test system: MCF7 breast
MDA-MB-435 = test system: MDA-MB-435
MDA-MB-468 breast = test system: MDA-MB-468 breast
MOLT-4 leukemia = test system: MOLT-4 leukemia
NCI-H226 lung = test system: NCI-H226 lung
NCI-H23 lung = test system: NCI-H23 lung
NCI-H460 lung = test system: NCI-H460 lung
NCI-H522 lung = test system: NCI-H522 lung
NCI/ADR-RES ovarian = test system: NCI/ADR-RES ovarian
OVCAR-3 ovarian = test system: OVCAR-3 ovarian
OVCAR-4 ovarian = test system: OVCAR-4 ovarian
OVCAR-5 ovarian = test system: OVCAR-5 ovarian
OVCAR-8 ovarian = test system: OVCAR-8 ovarian
PC-3 prostate = test system: PC-3 prostate
RPMI-8226 leukemia = test system: RPMI-8226 leukemia
RXF 393 renal = test system: RXF 393 renal
SF-268 CNS = test system: SF-268 CNS
SF-295 CNS = test system: SF-295 CNS
SF-539 CNS = test system: SF-539 CNS
SK-MEL-28 melanoma = test system: SK-MEL-28 melanoma
SK-MEL-5 melanoma = test system: SK-MEL-5 melanoma
SK-OV-3 ovarian = test system: SK-OV-3 ovarian
SN12C renal = test system: SN12C renal
SNB-19 CNS = test system: SNB-19 CNS
SR leukemia = test system: SR leukemia
SW-620 colon = test system: SW-620 colon
T-47D breast = test system: T-47D breast
TK-10 renal = test system: TK-10 renal
U251 CNS = test system: U251 CNS
UACC-62 melanoma = test system: UACC-62 melanoma

SMILES: CC(C)C[C@H](NC(=O)CNC(=O)C[C@H]1O[C@@H]2OC3(C)CC[C@H]4[C@H](C)CC[C@@H]([C@H]1C)[C@@]24O3)B(O)O
- GI50 (786-0 renal): 4.22 µM
- TGI (786-0 renal): 53.6 µM
- GI50 (A498 renal): 6.87 µM
- TGI (A498 renal): 49 µM
- GI50 (A549 NSCLC): 3.93 µM
- TGI (A549 NSCLC): > 100 µM
- GI50 (ACHN renal): 3.99 µM
- TGI (ACHN renal): > 100 µM
- GI50 (BT-549 breast): 0.537 µM
- TGI (BT-549 breast): 2.45 µM
- GI50 (CAKI-1 renal): 16.8 µM
- TGI (CAKI-1 renal): > 100 µM
- GI50 (CCRF-CEM leukemia): 0.502 µM
- TGI (CCRF-CEM leukemia): 3.88 µM
- GI50 (COLO 205 colon): 4.79 µM
- TGI (COLO 205 colon): 22.2 µM
- GI50 (DU-145 prostate): 13.5 µM
- TGI (DU-145 prostate): > 100 µM
- GI50 (EKVX NSCLC): 7.94 µM
- TGI (EKVX NSCLC): 79.6 µM
- GI50 (HCC-2998 colon): 1.92 µM
- TGI (HCC-2998 colon): 3.46 µM
- GI50 (HCT-116 colon): 1.46 µM
- TGI (HCT-116 colon): 3.7 µM
- GI50 (HCT-15 colon): 6.42 µM
- TGI (HCT-15 colon): 24.1 µM
- GI50 (HL-60(TB) leukemia): 0.514 µM
- TGI (HL-60(TB) leukemia): 4.15 µM
- GI50 (HOP-62 NSCLC): 3.89 µM
- TGI (HOP-62 NSCLC): 18.4 µM
- GI50 (HOP-92 NSCLC): 3.12 µM
- TGI (HOP-92 NSCLC): 9.51 µM
- GI50 (HS 578T breast): 3.5 µM
- TGI (HS 578T breast): 70.6 µM
- GI50 (HT29 colon): 1.67 µM
- TGI (HT29 colon): 4.63 µM
- GI50 (IGROV1 ovarian): 6.94 µM
- TGI (IGROV1 ovarian): 34.4 µM
- GI50 (K-562 leukemia): 3.69 µM
- TGI (K-562 leukemia): > 100 µM
- GI50 (KM12 colon): 2.71 µM
- TGI (KM12 colon): 7.32 µM
- GI50 (LOX IMVI melanoma): 1.44 µM
- TGI (LOX IMVI melanoma): 3.14 µM
- GI50 (M14 melanoma): 1.91 µM
- TGI (M14 melanoma): 4.82 µM
- GI50 (MALME-3M melanoma): 1.22 µM
- TGI (MALME-3M melanoma): 4.4 µM
- GI50 (MCF7 breast): 1.36 µM
- TGI (MCF7 breast): 41 µM
- GI50 (MDA-MB-435): 1.38 µM
- TGI (MDA-MB-435): 3.93 µM
- GI50 (MDA-MB-468 breast): 1.43 µM
- TGI (MDA-MB-468 breast): 3.57 µM
- GI50 (MOLT-4 leukemia): 0.332 µM
- TGI (MOLT-4 leukemia): 1.92 µM
- GI50 (NCI-H226 lung): 0.645 µM
- TGI (NCI-H226 lung): 2.14 µM
- GI50 (NCI-H23 lung): 3.1 µM
- TGI (NCI-H23 lung): 11.8 µM
- GI50 (NCI-H460 lung): 4.72 µM
- TGI (NCI-H460 lung): 23 µM
- GI50 (NCI-H522 lung): 1.63 µM
- TGI (NCI-H522 lung): 3.3 µM
- GI50 (NCI/ADR-RES ovarian): 40.6 µM
- TGI (NCI/ADR-RES ovarian): > 100 µM
- GI50 (OVCAR-3 ovarian): 1.78 µM
- TGI (OVCAR-3 ovarian): 4.27 µM
- GI50 (OVCAR-4 ovarian): 5.64 µM
- TGI (OVCAR-4 ovarian): > 100 µM
- GI50 (OVCAR-5 ovarian): 2.53 µM
- TGI (OVCAR-5 ovarian): 13.8 µM
- GI50 (OVCAR-8 ovarian): 3.58 µM
- TGI (OVCAR-8 ovarian): 17.6 µM
- GI50 (PC-3 prostate): 5.47 µM
- TGI (PC-3 prostate): 67 µM
- GI50 (RPMI-8226 leukemia): 0.272 µM
- TGI (RPMI-8226 leukemia): 1.38 µM
- GI50 (RXF 393 renal): 0.738 µM
- TGI (RXF 393 renal): 2.18 µM
- GI50 (SF-268 CNS): 3.51 µM
- TGI (SF-268 CNS): 97.5 µM
- GI50 (SF-295 CNS): 2.45 µM
- TGI (SF-295 CNS): 11.3 µM
- GI50 (SF-539 CNS): 1.32 µM
- TGI (SF-539 CNS): 3.08 µM
- GI50 (SK-MEL-28 melanoma): 1.45 µM
- TGI (SK-MEL-28 melanoma): 7.28 µM
- GI50 (SK-MEL-5 melanoma): 1.79 µM
- TGI (SK-MEL-5 melanoma): 3.67 µM
- GI50 (SK-OV-3 ovarian): 6.45 µM
- TGI (SK-OV-3 ovarian): 35.2 µM
- GI50 (SN12C renal): 2.98 µM
- TGI (SN12C renal): 12 µM
- GI50 (SNB-19 CNS): 5.83 µM
- TGI (SNB-19 CNS): > 100 µM
- GI50 (SR leukemia): 0.303 µM
- TGI (SR leukemia): 1.5 µM
- GI50 (SW-620 colon): 2.78 µM
- TGI (SW-620 colon): 17.8 µM
- GI50 (T-47D breast): 2.19 µM
- TGI (T-47D breast): 5.88 µM
- GI50 (TK-10 renal): 3.01 µM
- TGI (TK-10 renal): 20.1 µM
- GI50 (U251 CNS): 3.61 µM
- TGI (U251 CNS): 17.6 µM
- GI50 (UACC-62 melanoma): 1.92 µM
- TGI (UACC-62 melanoma): 4.61 µM

SMILES: Nc1n[nH]c2ccc([C@@H]3Nc4cc5c(cc4[C@H]4C6CCC(C6)[C@@H]34)C(=O)NC5)cc12 (some centres not stated)
- GI50 (MDA-MB-468 breast): 0.323 µM
- TGI (MDA-MB-468 breast): > 100 µM

SMILES: CCN1C(=O)N(CC)C2C1NN=c1s/c(=C\c3ccc(F)cc3)c(=O)n12 (configuration not stated)
- GI50 (MDA-MB-468 breast): 0.168 µM
- TGI (MDA-MB-468 breast): > 100 µM
